Literature values in US20030180823A1, “Individualization of therapy with antihistamines” (Xanthus Life Sciences, Inc., priority 2001, published 2003).

Tested on: skin tests
Conditions: very long half-life

SMILES: COc1ccc(CCN2CCC(Nc3nc4ccccc4n3Cc3ccc(F)cc3)CC2)cc1 [Astemizole]
- duration of inhibiting skin tests: up to 6 weeks
